Read-outs that look alike come from different tables or passages of the source. Starred links: 1 amine or outer side, 2 acyl side, 3 side chain; linkers in the order of their positions; H or OH if unused. Non-standard residues stand in square brackets, D forms with d. Groups on a side chain read outwards from the residue. No end group written: not given here. *: point of attachment. C18 diacid = O=C(O)CCCCCCCCCCCCCCCCC(=O)*; γGlu = O=C(O)[C@H](CCC(=O)[*:2])N[*:1]; αMe4Pal = C[C@](N)(Cc1ccncc1)C(=O)O; αMeY = C[C@](N)(Cc1ccc(O)cc1)C(=O)O; 4Pal = N[C@@H](Cc1ccncc1)C(=O)O; αMeL = CC(C)C[C@](C)(N)C(=O)O; Orn = NCCC[C@H](N)C(=O)O; Dab = NCC[C@H](N)C(=O)O; Aib = CC(C)(N)C(=O)O

Common to all, as to type: cell-based
Test [1] has as its target hGcgR (Homo sapiens, UniProt P47871). The test can be described thus: Functional cAMP activation in the presence of 0.1% casein (no HSA). The settings on record: in the presence of 0.1% casein (no HSA); geometric mean; read-out: Relative cAMP EC50, hGcgR.
Test [2] has as its target human GcgR (Homo sapiens, UniProt P47871). The test can be described thus: Functional cAMP activity in the presence of 1% HSA. As to conditions: read-out: cAMP Rel EC50, hGcgR.
Test [3] has as its target T1, hGIPR (Homo sapiens, UniProt P48546).
T1 sequence (P48546 22-466): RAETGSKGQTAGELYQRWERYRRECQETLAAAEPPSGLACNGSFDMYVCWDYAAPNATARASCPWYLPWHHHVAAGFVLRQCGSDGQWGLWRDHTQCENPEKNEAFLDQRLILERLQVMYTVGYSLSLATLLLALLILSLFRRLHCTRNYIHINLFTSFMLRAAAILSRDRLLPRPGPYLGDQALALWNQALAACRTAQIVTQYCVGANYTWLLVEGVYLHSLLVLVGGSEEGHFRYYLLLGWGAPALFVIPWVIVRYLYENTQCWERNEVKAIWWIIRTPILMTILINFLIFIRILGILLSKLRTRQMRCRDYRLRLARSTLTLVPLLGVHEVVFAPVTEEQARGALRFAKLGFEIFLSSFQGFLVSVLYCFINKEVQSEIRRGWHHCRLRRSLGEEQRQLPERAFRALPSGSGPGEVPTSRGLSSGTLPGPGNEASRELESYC
As to the kind of experiment: Functional cAMP activation in the presence of 0.1% casein (no HSA). The settings on record: in the presence of 0.1% casein (no HSA); geometric mean; read-out: Relative cAMP EC50, hGIPR.

For test [4], the target named is T2, hGLP-1R (Homo sapiens, UniProt P43220). The test can be described thus: Functional cAMP activity in the presence of 1% HSA. The settings on record: read-out: cAMP Rel EC50, hGLP-1R.
T2 sequence (P43220 24-463): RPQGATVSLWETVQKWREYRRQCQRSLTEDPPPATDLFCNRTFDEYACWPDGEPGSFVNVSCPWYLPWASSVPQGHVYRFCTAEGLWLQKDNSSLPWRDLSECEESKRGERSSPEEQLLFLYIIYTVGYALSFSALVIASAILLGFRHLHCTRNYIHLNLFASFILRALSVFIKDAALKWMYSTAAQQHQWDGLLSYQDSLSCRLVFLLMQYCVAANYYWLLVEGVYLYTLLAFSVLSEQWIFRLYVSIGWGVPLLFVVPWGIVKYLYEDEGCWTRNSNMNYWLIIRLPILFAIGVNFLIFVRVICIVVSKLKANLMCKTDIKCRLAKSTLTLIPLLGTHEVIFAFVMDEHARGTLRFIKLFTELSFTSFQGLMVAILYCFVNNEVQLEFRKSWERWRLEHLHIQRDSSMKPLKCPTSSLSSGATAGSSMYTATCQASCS
In test [5] the target is T2, hGLP-1R. The test can be described thus: Functional cAMP activation in the presence of 0.1% casein (no HSA). The settings on record: in the presence of 0.1% casein (no HSA); geometric mean; read-out: Relative cAMP EC50, hGLP-1R.
The target of test [6] is T1, hGIPR. As to the kind of experiment: Functional cAMP activity in the presence of 1% HSA. As to conditions: read-out: cAMP Rel EC50, hGIPR.
Where [7] appears, read: HEK-293 clonal cell line, in the presence of 1% HSA, geometric mean of relative EC50.
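Wherever Relative cAMP EC50, hGIPR is given: intracellular cAMP rise after 30 min at 37 °C read by HTRF against a standard curve, scaled between buffer alone (0%) and top control ligand concentration (100%), four-parameter fit.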
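Wherever Relative cAMP EC50, hGLP-1R is given: intracellular cAMP rise after 30 min at 37 °C read by HTRF, normalized between buffer only (0%) and maximal control ligand (100%), four-parameter variable-slope fit.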
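Wherever Relative cAMP EC50, hGcgR is given: intracellular cAMP rise after 30 min at 37 °C, read by HTRF against a cAMP standard curve, scaled from buffer only (0%) to maximal control ligand response (100%).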

Chain of hGcgR (P47871 26-477): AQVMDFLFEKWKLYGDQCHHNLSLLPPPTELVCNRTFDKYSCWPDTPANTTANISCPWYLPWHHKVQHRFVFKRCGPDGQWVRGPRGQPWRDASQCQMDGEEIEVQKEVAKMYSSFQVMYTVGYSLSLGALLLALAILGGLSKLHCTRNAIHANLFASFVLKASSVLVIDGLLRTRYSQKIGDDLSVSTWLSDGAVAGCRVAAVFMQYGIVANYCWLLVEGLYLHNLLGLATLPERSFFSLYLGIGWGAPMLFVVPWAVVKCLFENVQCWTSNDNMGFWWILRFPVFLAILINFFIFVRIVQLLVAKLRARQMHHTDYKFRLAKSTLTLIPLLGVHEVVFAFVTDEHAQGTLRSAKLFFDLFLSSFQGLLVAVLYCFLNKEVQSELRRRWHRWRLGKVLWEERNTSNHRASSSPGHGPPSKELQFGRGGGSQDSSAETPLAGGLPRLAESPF
Chain of human GcgR (P47871 26-477): as above

What is called EC50 is the concentration giving half of the maximal effect. On to `CC[C@H](C)[C@H](NC(=O)[C@H](Cc1ccccc1)NC(=O)[C@H](CCCN)NC(=O)C(C)(C)NC(=O)[C@H](CCC(N)=O)NC(=O)[C@H](C)NC(=O)[C@H](CCCCNC(=O)COCCOCCNC(=O)CC[C@H](NC(=O)CCCCCCCCCCCCCCCCCCC(=O)O)C(=O)O)NC(=O)[C@H](CCCN)NC(=O)[C@H](CC(=O)O)NC(=O)[C@H](CC(C)C)NC(=O)[C@](C)(CC(C)C)NC(=O)[C@@H](NC(=O)[C@H](CO)NC(=O)[C@H](Cc1ccncc1)NC(=O)[C@H](CC(=O)O)NC(=O)[C@H](CO)NC(=O)[C@@H](NC(=O)[C@](C)(Cc1ccccc1F)NC(=O)[C@@H](NC(=O)CNC(=O)[C@H](CCC(N)=O)NC(=O)C(C)(C)NC(=O)[C@@H](N)Cc1ccc(O)cc1)[C@@H](C)O)[C@@H](C)O)[C@@H](C)CC)C(=O)N[C@H](CCC(=O)O)C(=O)N[C@@](C)(Cc1ccc(O)cc1)C(=O)N[C@@H](CC(C)C)C(=O)N[C@@H](CC(C)C)C(=O)N[C@@H](CCC(=O)O)C(=O)NCC(=O)NCC(=O)N1CCC[C@H]1C(=O)N[C@@H](CO)C(=O)N[C@@H](CO)C(=O)NCC(=O)N[C@@H](CCC(=O)O)C(=O)N1CCC[C@H]1C(=O)N1CCC[C@H]1C(=O)N1CCC[C@H]1C(=O)N[C@@H](CO)C(N)=O` [Example 365], for which the EC50 was found to be 4.24 nM in test [1]; 1490 nM in test [2]; 0.0336 nM in test [3]; 75.2 nM in test [4]; 0.265 nM in test [5].
For the compound `CC[C@H](C)[C@H](NC(=O)[C@H](Cc1ccccc1)NC(=O)[C@H](C)NC(=O)C(C)(C)NC(=O)[C@H](CCC(N)=O)NC(=O)[C@H](C)NC(=O)[C@H](CCCCNC(=O)COCCOCCNC(=O)CC[C@H](NC(=O)CCCCCCCCCCCCCCCCC(=O)O)C(=O)O)NC(=O)[C@H](CCCCN)NC(=O)[C@H](CC(=O)O)NC(=O)[C@H](CC(C)C)NC(=O)[C@](C)(CC(C)C)NC(=O)[C@H](CCCN)NC(=O)[C@H](CO)NC(=O)[C@H](Cc1ccccc1)NC(=O)[C@H](CC(=O)O)NC(=O)[C@H](CO)NC(=O)[C@@H](NC(=O)[C@H](Cc1ccccc1)NC(=O)[C@@H](NC(=O)CNC(=O)[C@H](CCC(N)=O)NC(=O)C(C)(C)NC(=O)[C@@H](N)Cc1ccc(O)cc1)[C@@H](C)O)[C@@H](C)O)C(=O)N[C@@H](CCC(=O)O)C(=O)N[C@@H](Cc1c[nH]c2ccccc12)C(=O)N[C@@H](CC(C)C)C(=O)N[C@@H](CC(C)C)C(=O)N[C@@H](CCC(=O)O)C(=O)NCC(=O)NCC(=O)N1CCC[C@H]1C(=O)N[C@@H](CO)C(=O)N[C@@H](CO)C(=O)NCC(=O)N[C@@H](C)C(=O)N1CCC[C@H]1C(=O)N1CCC[C@H]1C(=O)N1CCC[C@H]1C(=O)N[C@@H](Cc1ccncc1)C(=O)NCC(=O)N[C@@H](CO)C(N)=O` [Example 251], the half-maximal effective concentration (EC50) is 6.98 nM in test [1]; 1500 nM in test [2]; 0.153 nM in test [3]; 301 nM in test [4]; 2.64 nM in test [5].
For `CC[C@H](C)[C@H](NC(=O)[C@H](CC(C)C)NC(=O)[C@H](Cc1ccc(O)cc1)NC(=O)[C@H](CCC(=O)O)NC(=O)[C@@H](NC(=O)[C@H](Cc1ccccc1)NC(=O)[C@H](C)NC(=O)[C@](C)(Cc1ccncc1)NC(=O)[C@H](CCC(N)=O)NC(=O)[C@H](C)NC(=O)[C@H](CCCCNC(=O)COCCOCCNC(=O)CC[C@H](NC(=O)CCCCCCCCCCCCCCCCC(=O)O)C(=O)O)NC(=O)[C@H](CCCCN)NC(=O)[C@H](CC(=O)O)NC(=O)[C@H](CC(C)C)NC(=O)[C@](C)(CC(C)C)NC(=O)[C@H](CCC(N)=O)NC(=O)[C@H](CO)NC(=O)[C@H](Cc1ccncc1)NC(=O)[C@H](CC(=O)O)NC(=O)[C@H](CO)NC(=O)[C@@H](NC(=O)[C@H](Cc1ccccc1)NC(=O)[C@@H](NC(=O)CNC(=O)[C@H](CCC(N)=O)NC(=O)C(C)(C)NC(=O)[C@@H](N)Cc1ccc(O)cc1)[C@@H](C)O)[C@@H](C)O)[C@@H](C)CC)C(=O)N[C@@H](CCC(=O)O)C(=O)NCC(=O)NCC(=O)N[C@@H](CCC(=O)O)C(=O)N[C@@H](CO)C(=O)N[C@@H](CO)C(=O)NCC(=O)N[C@@H](C)C(=O)N1CCC[C@H]1C(=O)N1CCC[C@H]1C(=O)N1CCC[C@H]1C(=O)N[C@@H](CO)C(=O)NCC(=O)N[C@@H](CO)C(N)=O` [Example 793], in that order: 3.79 nM, 1660 nM, 0.834 nM, 559 nM and 3.19 nM.
The matching figures for `CC[C@H](C)[C@H](NC(=O)[C@H](Cc1ccccc1)NC(=O)[C@H](C)NC(=O)C(C)(C)NC(=O)[C@H](CCC(N)=O)NC(=O)[C@H](C)NC(=O)[C@H](CCCCNC(=O)COCCOCCNC(=O)CC[C@H](NC(=O)CCCCCCCCCCCCCCCCC(=O)O)C(=O)O)NC(=O)[C@H](CCCCN)NC(=O)[C@H](CC(=O)O)NC(=O)[C@H](CC(C)C)NC(=O)[C@](C)(CC(C)C)NC(=O)[C@H](CCCN)NC(=O)[C@H](CO)NC(=O)[C@H](Cc1ccccc1)NC(=O)[C@H](CC(=O)O)NC(=O)[C@H](CO)NC(=O)[C@@H](NC(=O)[C@H](Cc1ccccc1)NC(=O)[C@@H](NC(=O)CNC(=O)[C@H](CCC(N)=O)NC(=O)C(C)(C)NC(=O)[C@@H](N)Cc1ccc(O)cc1)[C@@H](C)O)[C@@H](C)O)C(=O)N[C@@H](CCC(=O)O)C(=O)N[C@@H](Cc1ccc(O)cc1)C(=O)N[C@@H](CC(C)C)C(=O)N[C@@H](CC(C)C)C(=O)N[C@@H](CCC(=O)O)C(=O)NC(C)(C)C(=O)NCC(=O)N[C@@H](CCC(=O)O)C(=O)N[C@@H](CO)C(=O)N[C@@H](CO)C(=O)NCC(=O)N[C@@H](C)C(=O)N1CCC[C@H]1C(=O)N1CCC[C@H]1C(=O)N1CCC[C@H]1C(=O)N[C@@H](CO)C(=O)NCC(=O)N[C@@H](CCC(=O)O)C(N)=O` [Example 246]: 2.38 nM, 639 nM, 0.106 nM, 845 nM and 3.91 nM.
As to “H-Y[Aib]QGTFTSD[4Pal]SQ[αMeL]LD[Orn]K([Glu-γGlu-C18 diacid])AQ[αMe4Pal]AFIEYLLAGGPSSGAPPPSGSEE-NH2 [Example 1057]”, the EC50 in test [1] was determined as 5.29 nM; in test [2], 2780 nM; in test [3], 0.128 nM; in test [6], 25.9 nM; in test [5] it was 5.16 nM.
The matching figures for “H-Y[Aib]QGTFTSD[4Pal]S[Orn][αMeL]LDKK([Glu-γGlu-C18 diacid])AQ[αMe4Pal]AFIEYLIAGGPSSGAPPPSGSEE-NH2 [Example 1060]”: 9.08 nM, 4900 nM, 0.223 nM, 44.7 nM and 2.85 nM.
As to “Y[Aib]QGTFTSD[4Pal]SQ[αMeL]LD[Orn]K([dE-γGlu-C18 diacid])AQ[αMe4Pal]AFIE[αMeY]LLEGGPSSGAPPPSGSEE-NH2 [Example 1058]”, the 50% effective concentration (EC50) in test [1] is 5.8 nM; in test [2] it was 1450 nM; in test [3], 0.139 nM; in test [6], 45.6 nM; in test [5] it was 4.48 nM.
Consider “H-Y[Aib]QGTFTSDFS[Orn][αMeL]LDKK([γGlu-γGlu-C18 diacid])AQ[Aib]AFIEYLLAGGPSSGAPPPEGSEE-NH2 [Example 1051]”, for which the EC50 worked out at 10.3 nM in test [1]; 1800 nM in test [2] (setting [7]); 0.172 nM in test [3]; 32.6 nM in test [6] (setting [7]); 8.3 nM in test [5].
For “H-Y[Aib]QGTFTSD[4Pal]S[Dab][αMeL]LD[Orn]K([γGlu-γGlu-C18 diacid])AQ[αMe4Pal]AFIE[αMe4Pal]LLAGGPSSGAPPPEGSEE-NH2 [Example 1055]”, in that order: 1.88 nM, 450 nM, 0.366 nM, 78.9 nM and 14.6 nM.
